We go through one compound from patent US20220047687A1, “CHEMICAL SCALPEL” (FUNDACIÓN INSTITUTO DE INVESTIGACIÓN SANITARIA FUNDACIÓN …, priority 2019, published 2022).

Data set [1] concerns abdominal organs and peritoneum. Description: Survival and necropsy of healthy rats after peritoneal washing (groups A, B). From the text: During this phase, a series of survival experiments were established with various work groups and subgroups to learn about the co-adjuvant or enhancing role of collagenase in the treatment of peritoneal tumors with chemotherapeutic agents such as mitomycin C:
Each group initially consisted of 6 rats (2×3). In the initial design, 3 animals were sacrificed after 15 days and the rest were left until the conditions of the animals required them to be sacrificed (subcutaneous tumor growth >0.5 cm in diameter) or a maximum of 2 months.

For data set [2], the system named is peritoneal carcinomatosis (DHD cells). Kind of data set: Survival and necropsy of rats with carcinomatosis after peritoneal washing (groups D, E, F). As to conditions: for Observations (necropsy): group E, Mito 5 mg; for outcome of group E: mitomycin 5 mg/animal, large amount of analgesia. Type of data set: in vivo, rat. Here is the method: (§1) The procedure was performed 2 times in the TCQ group, the first time with collagenase and after 2 minutes peritoneal washing with mitomycin C at the different concentrations to be tested was repeated. […] Blood was also collected from all the animals before sacrificing them, the blood was processed within the hour following its extraction to obtain plasma and to analyze, on one hand, the existence of the mutated KRAS oncogene (mutation in codon 12 of exon 1 expressed by DHD cells), and on the other hand the existence of collagenase traces or residues in blood after the peritoneal washes. A digital PCR was used for the KRAS oncogene localization study. For the collagenase trace study, the anonymized samples were sent to Lyposmol laboratories for the performance of specific anti-MMP-1 and anti-MMP-2 ELISAS.
Each group initially consisted of 6 rats (2×3).

In data set [3] the test system is mutated KRAS oncogene. Description: Digital PCR of KRAS in plasma. Type of data set: in vivo, rat. The following applies: for Mutated KRAS event no.: plasma. The method, then:
as §1
To analyze the presence of mutated KRAS in the blood of the different groups by means of digital PCR, DNA was extracted from at least 2 ml of plasma/group by means of the QlAamp Circulating Nucleic Acid kit according to the manufacturer's data and the results were those listed in Table 4.

“Also recorded” adds a separate entry of the source.

`CO[C@@]12[C@H](COC(N)=O)C3=C(C(=O)C(C)=C(N)C3=O)N1C[C@@H]1N[C@@H]12` [Mitomycin C, mitomycin C]: the “necropsies of group B1” value in data set [1] (5 mg of mitomycin) was “many irritated and bloody adhesions, and thin organ walls and vessels”. The clinical condition entry in data set [1] (group B, high dose 5 mg/animal) is “always lethargic and exhibit very little activity”. Further, in data set [1] (group B, high dose 5 mg/animal, despite continuous analgesia), the survival time is not above 2 weeks. The “Observations (necropsy)” value in data set [1] (group B-1, healthy rats, 5 mg, 1 week, 2 animals, listed as Mito) was “Significant weight loss. Viscera affected”; in data set [1] (group B-1, healthy rats, 5 mg, 1 week, 2 animals, listed as mitomycin), “all the abdominal organs are in a relaxed and retracted state (with kidneys that appear necrotic and liver that appears collapsed), the omentum can be ruptured upon contact, and the large intestine obstructed”; in data set [1] (group B-1, healthy rats, 5 mg, 5 days, 1 animal), “intestinal puncture”; in data set [1] (group B-2, healthy rats, 0.1 mg, 1 week, 1 animal), “Organs with thinning and bloody walls; also recorded: Many adhesions”; in data set [1] (group B-2, healthy rats, 0.1 mg, 2 months, 2 animals, listed as Mito), “Greenish liquid in abdomen, peritonitis; also recorded: high degree of adhesions”; in data set [1] (group B-2, healthy rats, 0.1 mg, 2 months, 2 animals, listed as mitomycin) it was “the intestine and an omentum are hematic”. Also, the “Observations (necropsy)” value is “Evisceration” in data set [1] (group B-2, healthy rats, 0.1 mg, 24 h, 2 animals); “Endpoint criterion” in data set [2] (1 week, 1 animal); “Endpoint criterion” in data set [2] (2 weeks, 2 animals); “Endpoint criterion” in data set [2] (72 h, 3 animals). For the same compound, the “outcome of group E” value is “all the animals had to be sacrificed due to endpoint criterion” in data set [2] and “Half of the animals were found dead the first night after surgery” in data set [2] (listed as mitomycin). The “mutated KRAS in the plasma, assessment” value in data set [3] (group E (DHD + mitomycin C 5 mg/animal), only such group among the treatments) is listed as “positive mutated KRAS in the plasma”. For the same compound, the “Mutated KRAS event no.” value is given as 0 in data set [3] (group B (healthy rats, mitomycin)) and 524 in data set [3] (group E (DHD + Mito 5 mg/animal)).
